In patent US8063048B2, “Acetylenyl-pyrazolo-pyrimidine derivatives” (Hoffmann-La Roche Inc., priority 2005, dated 2011) one finds melting point data, which are given here for 30 compounds.

Structures are written as SMILES.

A word on the melting point: it is the temperature, or range, at which the solid turns liquid. `O=S(=O)(NCc1ccncc1)c1ccc(C#Cc2cnn3c(C(F)F)cc(-c4ccc(C(F)(F)F)cc4)nc23)s1` [Example 277, 5-[7-Difluoromethyl-5-(4-trifluoromethyl-phenyl)-pyrazolo[1,5-a]pyrimidin-3-ylethynyl]-thiophene-2-sulfonic acid (pyridin-4-ylmethyl)-amide] registered a melting point of 141 °C.

The compound `CC(C)(C)NS(=O)(=O)c1ccc(C#Cc2cnn3c(C(F)(F)F)cc(-c4ccc(C(F)(F)F)cc4)nc23)s1` [Example 109, 5-[7-Trifluoromethyl-5-(4-trifluoromethyl-phenyl)-pyrazolo[1,5-a]pyrimidin-3-ylethynyl]-thiophene-2-sulfonic acid tert-butylamide] yielded a melting point of 226 °C.

`COCCNS(=O)(=O)c1ccc(C#Cc2cnn3c(C(F)(F)F)cc(-c4ccc(C(F)(F)F)cc4)nc23)cc1` [Example 124, N-(2-Methoxy-ethyl)-4-[7-trifluoromethyl-5-(4-trifluoromethyl-phenyl)-pyrazolo[1,5-a]pyrimidin-3-ylethynyl]-benzenesulfonamide] displayed a melting point of 185 to 187 °C.

Compound `Cc1cc(-c2ccc(Cl)cc2)nc2c(C#Cc3cnc(N)nc3)cnn12` [Example 316, 5-[5-(4-Chloro-phenyl)-7-methyl-pyrazolo[1,5-a]pyrimidin-3-ylethynyl]-pyrimidin-2-ylamine] had a melting point of 280 to 282 °C.

Regarding `CCCc1cc(-c2ccc(Cl)cc2)nc2c(C#Cc3ccc(N)nc3)cnn12` [Example 305, 5-[5-(4-Chloro-phenyl)-7-propyl-pyrazolo[1,5-a]pyrimidin-3-ylethynyl]-pyridin-2-ylamine], the melting point fell in the range of 215 to 217 °C.

In the case of `FC(F)(F)c1ccc(-c2cc(C(F)(F)F)n3ncc(C#Cc4cncnc4)c3n2)cc1` [Example 44, 3-Pyrimidin-5-ylethynyl-7-trifluoromethyl-5-(4-trifluoromethyl-phenyl)-pyrazolo[1,5-a]pyrimidine], the melting point is 175 °C.

For `CC(C)(CO)NS(=O)(=O)c1cccc(C#Cc2cnn3c(C4CC4)cc(-c4ccc(Cl)cc4)nc23)c1` [Example 65, 3-[5-(4-Chloro-phenyl)-7-cyclopropyl-pyrazolo[1,5-a]pyrimidin-3-ylethynyl]-N-(2-hydroxy-1,1-dimethyl-ethyl)-benzenesulfonamide], the melting point was in the range of 202 to 204 °C.

`COc1ccc(C#Cc2cnn3ccc(-c4ccc(Cl)cc4)nc23)cc1S(=O)(=O)NC(C)(C)CO` [Example 75, 5-[5-(4-Chloro-phenyl)-pyrazolo[1,5-a]pyrimidin-3-ylethynyl]-N-(2-hydroxy-1,1-dimethyl-ethyl)-2-methoxy-benzenesulfonamide] displayed a melting point of 264 to 266 °C.

Turning to `Nc1ccc(C#Cc2cnn3c(C(F)F)cc(-c4cccc(C(F)(F)F)c4)nc23)cn1` [Example 254, 5-[7-Difluoromethyl-5-(3-trifluoromethyl-phenyl)-pyrazolo[1,5-a]pyrimidin-3-ylethynyl]-pyridin-2-ylamine], the melting point was 164 °C.

`COc1cncc(C#Cc2cnn3c(C(F)(F)F)cc(-c4ccc(C(F)(F)F)cc4)nc23)c1` [Example 57, 3-(5-Methoxy-pyridin-3-ylethynyl)-7-trifluoromethyl-5-(4-trifluoromethyl-phenyl)-pyrazolo[1,5-a]pyrimidine] registered a melting point of 232 to 234 °C.

Turning to `CC(C)(C)NS(=O)(=O)c1ccc(C#Cc2cnn3c(C(F)(F)F)cc(-c4cccc(C(F)(F)F)c4)nc23)s1` [Example 117, 5-[7-Trifluoromethyl-5-(3-trifluoromethyl-phenyl)-pyrazolo[1,5-a]pyrimidin-3-ylethynyl]-thiophene-2-sulfonic acid tert-butylamide], the melting point stood at 168 °C.

For the compound `NS(=O)(=O)c1cccc(C#Cc2cnn3c(C4CC4)cc(-c4ccc(Cl)c(Cl)c4)nc23)c1` [Example 87, 3-[7-Cyclopropyl-5-(3,4-dichloro-phenyl)-pyrazolo[1,5-a]pyrimidin-3-ylethynyl]-benzenesulfonamide], the melting point was in the range of 200 to 202 °C.

`Cc1nc(C#Cc2cnn3c(C(F)(F)F)cc(-c4ccc(C(F)(F)F)cc4)nc23)sc1S(=O)(=O)NC(C)(C)CO` [Example 53, 4-Methyl-2-[7-trifluoromethyl-5-(4-trifluoromethyl-phenyl)-pyrazolo[1,5-a]pyrimidin-3-ylethynyl]-thiazole-5-sulfonic acid (2-hydroxy-1,1-dimethyl-ethyl)-amide]: the melting point lay in the range of 216 to 218 °C.

The compound `Nc1ncc(C#Cc2cnn3c(C(F)(F)F)cc(-c4ccc(C(F)(F)F)cc4)nc23)cc1C(F)(F)F` [Example 222, 3-Trifluoromethyl-5-[7-trifluoromethyl-5-(4-trifluoromethyl-phenyl)-pyrazolo[1,5-a]pyrimidin-3-ylethynyl]-pyridin-2-ylamine] returned a melting point of 230 °C.

For the compound `NS(=O)(=O)c1ccc(C#Cc2cnn3c(C4CC4)cc(-c4ccc(C(F)(F)F)cc4)nc23)s1` [Example 83, 5-[7-Cyclopropyl-5-(4-trifluoromethyl-phenyl)-pyrazolo[1,5-a]pyrimidin-3-ylethynyl]-thiophene-2-sulfonic acid amide], the melting point was in the range of 231 to 233 °C.

Turning to `CC(=O)Nc1ncc(C#Cc2cnn3c(C(F)(F)F)cc(-c4ccc(C(F)(F)F)cc4)nc23)s1` [Example 291, N-{5-[7-Trifluoromethyl-5-(4-trifluoromethyl-phenyl)-pyrazolo[1,5-a]pyrimidin-3-ylethynyl]-thiazol-2-yl}-acetamide], the melting point came to 302 °C.

The compound `O=S(=O)(NCCO)c1ccc(C#Cc2cnn3c(C(F)F)cc(-c4ccc(C(F)(F)F)cc4)nc23)cc1` [Example 140, 4-[7-Difluoromethyl-5-(4-trifluoromethyl-phenyl)-pyrazolo[1,5-a]pyrimidin-3-ylethynyl]-N-(2-hydroxy-ethyl)-benzenesulfonamide] had a melting point of 191 to 194 °C.

Compound `FC(F)(F)c1ccc(-c2cc(C(F)(F)F)c3ncc(C#Cc4cccnc4)n3c2)cc1` [Example 190, 3-Pyridin-3-ylethynyl-8-trifluoromethyl-6-(4-trifluoromethyl-phenyl)-imidazo[1,2-a]pyridine] returned a melting point of 169 to 170 °C.

With `NS(=O)(=O)c1cc(C#Cc2cnn3c(C(F)F)cc(-c4ccc(C(F)(F)F)cc4)nc23)c(F)cc1F` [Example 31, 5-[7-Difluoromethyl-5-(4-trifluoromethyl-phenyl)-pyrazolo[1,5-a]pyrimidin-3-ylethynyl]-2,4-difluoro-benzenesulfonamide], the melting point fell in the range of 256 to 258 °C.

As to `NS(=O)(=O)c1cc(C#Cc2cnn3c(C(F)F)cc(-c4cccc(C(F)(F)F)c4)nc23)c(F)cc1F` [Example 166, 5-[7-Difluoromethyl-5-(3-trifluoromethyl-phenyl)-pyrazolo[1,5-a]pyrimidin-3-ylethynyl]-2,4-difluoro-benzenesulfonamide], the melting point worked out at 277 °C.

`CN1CCN(S(=O)(=O)c2ccc(C#Cc3cnn4c(C(F)F)cc(-c5ccc(C(F)(F)F)cc5)nc34)s2)CC1` [Example 252, 7-Difluoromethyl-3-[5-(4-methyl-piperazine-1-sulfonyl)-thiophen-2-ylethynyl]-5-(4-trifluoromethyl-phenyl)-pyrazolo[1,5-a]pyrimidine]: the melting point was determined as 226 °C.

On to `NS(=O)(=O)c1cccc(C#Cc2cnn3c(C(F)(F)F)cc(-c4ccc(Cl)c(Cl)c4)nc23)c1` [Example 93, 3-[5-(3,4-Dichloro-phenyl)-7-trifluoromethyl-pyrazolo[1,5-a]pyrimidin-3-ylethynyl]-benzenesulfonamide], for which the melting point lay within 230 to 231 °C.

In turn, `Cc1cc(-c2cc(C(F)(F)F)n3ncc(C#Cc4cccnc4)c3n2)ccc1Cl` [Example 101, 5-(4-Chloro-3-methyl-phenyl)-3-pyridin-3-ylethynyl-7-trifluoromethyl-pyrazolo[1,5-a]pyrimidine] displayed a melting point of 196 °C.

`Nc1ncc(C#Cc2cnn3c(C(F)(F)F)cc(-c4ccc(C(F)(F)F)cc4)nc23)cn1` [Example 205, 5-[7-Trifluoromethyl-5-(4-trifluoromethyl-phenyl)-pyrazolo[1,5-a]pyrimidin-3-ylethynyl]-pyrimidin-2-ylamine] registered a melting point of 255 to 256 °C.

For the compound `CC(C)(C)NS(=O)(=O)c1ccc(C#Cc2cnn3c(C(F)F)cc(-c4cccc(C(F)(F)F)c4)nc23)s1` [Example 161, 5-[7-Difluoromethyl-5-(3-trifluoromethyl-phenyl)-pyrazolo[1,5-a]pyrimidin-3-ylethynyl]-thiophene-2-sulfonic acid tert-butylamide], the melting point came out at 201 °C.

`CNC(=O)c1ccc(C#Cc2cnn3c(C4CC4)cc(-c4ccc(Cl)cc4)nc23)cc1` [Example 306, 4-[5-(4-Chloro-phenyl)-7-cyclopropyl-pyrazolo[1,5-a]pyrimidin-3-ylethynyl]-N-methyl-benzamide] showed a melting point of 214 to 216 °C.

As to `CN1CCN(S(=O)(=O)c2ccc(C#Cc3cnn4c(C(F)(F)F)cc(-c5cccc(C(F)(F)F)c5)nc34)s2)CC1` [Example 249, 3-[5-(4-Methyl-piperazine-1-sulfonyl)-thiophen-2-ylethynyl]-7-trifluoromethyl-5-(3-trifluoromethyl-phenyl)-pyrazolo[1,5-a]pyrimidine], the melting point is 191 °C.

Consider `NS(=O)(=O)c1cccc(C#Cc2cnc3c(C(F)(F)F)cc(-c4ccc(C(F)(F)F)cc4)cn23)c1` [Example 194, 3-[8-Trifluoromethyl-6-(4-trifluoromethyl-phenyl)-imidazo[1,2-a]pyridin-3-ylethynyl]-benzenesulfonamide], for which the melting point was found to be 240 °C.

For the compound `CS(=O)(=O)c1cncc(C#Cc2cnn3c(C(F)(F)F)cc(-c4ccc(C(F)(F)F)cc4)nc23)c1` [Example 38, 3-(5-Methanesulfonyl-pyridin-3-ylethynyl)-7-trifluoromethyl-5-(4-trifluoromethyl-phenyl)-pyrazolo[1,5-a]pyrimidine], the melting point fell in the range of 241 to 242 °C.

Consider `NS(=O)(=O)c1ccc(C#Cc2cnn3c(C(F)(F)F)cc(-c4ccc(Cl)cc4)nc23)s1` [Example 97, 5-[5-(4-Chloro-phenyl)-7-trifluoromethyl-pyrazolo[1,5-a]pyrimidin-3-ylethynyl]-thiophene-2-sulfonic acid amide], for which the melting point was in the range of 239 to 240 °C.
